# Experimental data reported in the supplement of paper PMC10307832.
# Experiments:
# Assay in all cases: relative viability (nuclei count vs DMSO), 5 days (fraction); higher = more cells survive
# [1] = compound: CC1=NN=C(O1)C2=NN=C(C=C2)N3CCC(CC3)OC4=C(C=CC(=C4)F)Cl + O=C(c1cc(Cc2n[nH]c(=O)c3ccccc23)ccc1F)N1CCN(C(=O)C2CC2)CC1 [Olaparib] (partner 8 µM)
# Summary of the method: (§1)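 Lung cancer cell lines, seeded in 1536-well plates, were treated the following day by pin tool with a single drug or with five library-drug doses (not always all listed) in √10 steps on top of a fixed anchor-drug dose. Cells were fixed and nuclei stained in one step after 5 days, and nuclei were counted. Relative viability is the nuclei count for treated wells divided by that for vehicle wells, reported as medians of duplicate plates.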
# [2] = compound: CC1=NN=C(O1)C2=NN=C(C=C2)N3CCC(CC3)OC4=C(C=CC(=C4)F)Cl + Nc1nc2[nH]cc(CCc3ccc(C(=O)N[C@@H](CCC(=O)O)C(=O)O)cc3)c2c(=O)[nH]1 [Pemetrexed] (partner 0.2 µM)
# Summary of the method: as §1
# Tosedostat + Linsitinib = compound: CC(C)C[C@@H](C(=O)N[C@H](C(=O)OC1CCCC1)c1ccccc1)[C@H](O)C(=O)NO [Tosedostat] + C[C@]1(O)C[C@@H](c2nc(-c3ccc4ccc(-c5ccccc5)nc4c3)c3c(N)nccn32)C1 [Linsitinib] (partner 1 µM)
# Summary of the method: as §1
# [3] = compound: CC1=NN=C(O1)C2=NN=C(C=C2)N3CCC(CC3)OC4=C(C=CC(=C4)F)Cl + C[C@@H](Oc1cc(-c2cnn(C3CCNCC3)c2)cnc1N)c1c(Cl)ccc(F)c1Cl [Crizotinib] (partner 1 µM)
# Summary of the method: as §1
Cell Line,relative viability ([1]; first compound 0.253 µM),relative viability ([1]; first compound 0.8 µM),relative viability ([1]; first compound 2.53 µM),relative viability ([1]; first compound 8 µM),relative viability ([2]; first compound 0.253 µM),relative viability ([2]; first compound 0.8 µM),relative viability ([2]; first compound 2.53 µM),relative viability ([2]; first compound 8 µM),relative viability (Tosedostat + Linsitinib; first compound 0.02 µM),relative viability (Tosedostat + Linsitinib; first compound 0.06325 µM),relative viability (Tosedostat + Linsitinib; first compound 0.2 µM),relative viability (Tosedostat + Linsitinib; first compound 0.6325 µM),relative viability (Tosedostat + Linsitinib; first compound 2 µM),relative viability ([3]; first compound 0.253 µM),relative viability ([3]; first compound 0.8 µM),relative viability ([3]; first compound 2.53 µM),relative viability ([3]; first compound 8 µM)
SK-MES-1,0.497,0.507,0.538,0.507,0.681,0.853,0.828,0.628,1.2,1.05,1.06,1.01,0.983,0.773,0.807,0.81,0.724
NCI-H1651,0.165,0.162,0.17,0.162,0.488,0.422,0.445,0.444,0.996,0.963,1.11,0.875,0.863,0.753,0.659,0.656,0.669
LXF-289,0.829,0.632,0.902,0.788,0.768,0.594,0.767,0.726,1.02,0.879,1.02,0.946,0.994,0.612,0.593,0.623,0.545
HCC-827,0.396,0.242,0.401,0.386,0.257,0.244,0.246,0.224,0.966,0.934,0.976,0.857,0.909,0.331,0.224,0.326,0.308
LK-2,0.757,0.58,0.655,0.672,0.318,0.256,0.377,0.255,0.883,0.465,0.562,0.743,0.913,0.216,0.246,0.24,0.259
HCC-366,0.117,0.139,0.258,0.157,0.0851,0.121,0.174,0.15,0.59,0.77,0.721,0.457,0.602,0.289,0.284,0.256,0.272
BEN,1.2,0.767,0.966,1.07,0.736,0.84,0.806,0.741,0.986,0.921,0.989,1.14,1.06,0.709,0.796,0.913,0.86
NCI-H322M,0.746,0.724,0.817,0.732,0.629,0.381,0.578,0.592,0.8,0.902,0.894,0.877,0.839,0.762,0.792,0.899,0.886
